Here are results for four molecules from US4103085A, “7-(Syn-α-alkoxy-iminofurylacetamido-3-(2-carboxyalkyl-2,3-dihy dro-s-triazolo[4,3-b]pyridazin-3-on-6-ylthiomethyl)-3-cephem-4-carboxylic acids” (Bristol-Myers Company, priority 1977, dated 1978).

Common to all, as to assay type: cell-based
The test system of assay [1] is E. coli (7). Briefly: In vitro activity, Mueller-Hinton agar, serial dilution method (Table 1). The note with it: Escherichia coli, read-out: Geometric Mean of MIC.
The subject of assay [2] is S. viridans (5). Described as above. To be noted: Streptococcus viridans, read-out: Geometric Mean of MIC.
Assay [3] concerns Proteus (6). The assay is described as above. The note with it: read-out: Geometric Mean of MIC.
For assay [4], the system named is S. aureus (3 strains). Described as above. To be noted: Staphylococcus aureus, read-out: Geometric Mean of MIC.
Assay [5] concerns B. anthracis (1) S. pyrogenes (5). As to the kind of experiment: microbe, parasite or virus in culture. To be noted: Bacillus anthracis, read-out: Geometric Mean of MIC.
Assay [6] concerns D. pneumoniae (5). As to the kind of experiment: In vitro activity, Mueller-Hinton agar, serial dilution method (Table 1). The note with it: Streptococcus pneumoniae, read-out: Geometric Mean of MIC.
Assay [7] deals with H. influenzae (7). The description is as above. The note with it: Haemophilus influenzae, read-out: Geometric Mean of MIC.
In assay [8] the test system is Kl. pneumoniae (4). The assay is described as above. The note with it: Klebsiella pneumoniae, read-out: Geometric Mean of MIC. From the text: (§1) In vitro Activity Using Mueller-Hinton Agar
(§2) By the Serial Dilution Method

The test system of assay [9] is Shig. (3), Serr. (1) (1), Sal. (2). The assay is described as above. The note with it: read-out: Geometric Mean of MIC.
Excerpt: as §1, §2

The subject of assay [10] is N. gonorrhoeae (5). The assay is described as above. To be noted: Neisseria gonorrhoeae, read-out: Geometric Mean of MIC.
Assay [11] concerns N. meningitidis (5). The description is as above. To be noted: Neisseria meningitidis, read-out: Geometric Mean of MIC.
The subject of assay [12] is S. marcescens. Briefly: MICs against 18 strains of S. marcescens (Table 3). To be noted: Serratia marcescens, read-out: Geometric Means of MIC's. The text has this: Geometric Means of MIC's Against 18 Strains
Assay [13] deals with Indole(+) Proteus. As to the kind of experiment: MICs in Mueller-Hinton agar (Table 2). The note with it: 3 strains, read-out: Geometric Means of MIC's. From the text:
(§3) Geometric Means of MIC's Against 3 Strains
(§4) of S. aureus and 27 Strains of Gram-negative Bacteria
(§5) (mcg./ml., Mueller-Hinton Agar)

The subject of assay [14] is Indole(+) Proteus, Cephalosporin-R. Briefly: MICs in Mueller-Hinton agar (Table 2). The note with it: 2 strains, read-out: Geometric Means of MIC's.
Excerpt: as §3, §4, §5

Assay [15] relates to Indole (-) Proteus. Briefly: MICs in Mueller-Hinton agar (Table 2). To be noted: 2 strains, read-out: Geometric Means of MIC's.
Excerpt: as §3, §4, §5

Assay [16] has as its system K. pneumoniae. As to the kind of experiment: MICs in Mueller-Hinton agar (Table 2). To be noted: Klebsiella pneumoniae, 4 strains, read-out: Geometric Means of MIC's.
Excerpt: as §3, §4, §5

Assay [17] has as its system Shigella, Salmonella. Briefly: MICs in Mueller-Hinton agar (Table 2). To be noted: 5 strains, read-out: Geometric Means of MIC's.
Excerpt: as §3, §4, §5

Assay [18] has as its system S. aureus, Penicillin-R. Briefly: MICs in Mueller-Hinton agar (Table 2). The note with it: Staphylococcus aureus, 2 strains, read-out: Geometric Means of MIC's.
Excerpt: as §3, §4, §5

Assay [19] concerns E. cloacae. Briefly: MICs in Mueller-Hinton agar (Table 2). To be noted: Enterobacter cloacae, 1 strain, read-out: Geometric Means of MIC's.
Excerpt: as §3, §4, §5

Assay [20] has as its system P. aeruginosa. Briefly: MICs in Mueller-Hinton agar (Table 2). The note with it: Pseudomonas aeruginosa, 2 strains, read-out: Geometric Means of MIC's.
Excerpt: as §3, §4, §5

Assay [21] concerns E. coli, Cephalosporin-R. As to the kind of experiment: MICs in Mueller-Hinton agar (Table 2). The note with it: Escherichia coli, 1 strain, read-out: Geometric Means of MIC's.
Excerpt: as §3, §4, §5

Assay [22] has as its system S. marcescens. Briefly: MICs in Mueller-Hinton agar (Table 2). The note with it: Serratia marcescens, 1 strain, read-out: Geometric Means of MIC's.
Excerpt: as §3, §4, §5

Assay [23] deals with E. coli. Briefly: MICs in Mueller-Hinton agar (Table 2). To be noted: Escherichia coli, 6 strains, read-out: Geometric Means of MIC's.
Excerpt: as §3, §4, §5

For assay [24], the system named is S. aureus. Briefly: MICs in Mueller-Hinton agar (Table 2). The note with it: Staphylococcus aureus, 1 strain, read-out: Geometric Means of MIC's.
Excerpt: as §3, §4, §5

SMILES strings stand for the structures. Values after ≈ are worked out from the molar mass of the structure shown. Where a name gives a salt, the structure may show the parent alone.

With `CO/N=C(\C(=O)N[C@@H]1C(=O)N2C(C(=O)O)=C(CSc3ccc4nn(CCC(=O)O)c(=O)n4n3)CS[C@H]12)c1ccco1` [BB-S526, 7-[(2Z)-2-Methoxyimino(fur-2-yl)acetamido]-3-[2-(2-carboxyethyl)-2,3-dihydro-s-triazolo[4,3-b]pyridazin-3-on-6-ylthiomethyl]-3-cephem-4-carboxylic Acid Sodium Salt], the MIC in assay [1] came to 0.78 µg/mL; in assay [2], 0.4 µg/mL; in assay [3] it was 0.061 µg/mL; in [4], 1.6 µg/mL; in [5], 0.032 µg/mL; in assay [6] it was 0.056 µg/mL. Further, the MIC was 0.71 µg/mL in assay [7]; 0.93 µg/mL in assay [8]; 2.41 µg/mL in assay [9]; 1.6 µg/mL in assay [10]; 3.6 µg/mL in [11].
With `NCc1ccccc1CC(=O)N[C@@H]1C(=O)N2C(C(=O)O)=C(CSc3nnnn3CC(=O)O)CS[C@H]12` [BL-S786, 7-[α-(2-aminomethylphenyl)acetamido]-3-[(1-carboxymethyltetrazol-5-lthio)methyl]-3-cephem-4-carboxylic acid, reference compound], the MIC was determined as 85.9 µg/mL (≈ 165 µM) in [12]; 0.3 µg/mL (≈ 0.577 µM) in assay [13]; 50.1 µg/mL (≈ 96.4 µM) in [14]; 0.2 µg/mL (≈ 0.385 µM) in assay [15]; 0.3 µg/mL (≈ 0.577 µM) in assay [16]; 0.5 µg/mL (≈ 0.962 µM) in assay [17]. Further, the MIC in assay [18] was 1.6 µg/mL (≈ 3.08 µM); in assay [19], 1.6 µg/mL (≈ 3.08 µM); in [20] it was above 100 µg/mL; in [21] it was 12.5 µg/mL (≈ 24.1 µM); in assay [22] it was above 100 µg/mL; in assay [23], 0.2 µg/mL (≈ 0.385 µM).
For the molecule `CO/N=C(\C(=O)N[C@@H]1C(=O)N2C(C(=O)O)=C(COC(N)=O)CS[C@H]12)c1ccco1` [Cefuroxime, sodium 6R,7R-3-carbamoyloxymethyl-7-(2Z)-2-methoxyimino(fur-2-yl)acetamidoceph-3em-4-carboxylate, reference compound], the MIC in [1] turned out to be 1.28 µg/mL; in [2], 0.1 µg/mL; in [3], 0.88 µg/mL; in assay [4], 1.24 µg/mL; in assay [5] it was 0.025 µg/mL; in [6], 0.0125 µg/mL. Further, the MIC in [7] is 1.16 µg/mL; in assay [8] it was 3.1 µg/mL; in assay [9], 4.06 µg/mL; in assay [10] it was 0.4 µg/mL; in assay [11], 1.6 µg/mL.
Consider `CO/N=C(\C(=O)N[C@@H]1C(=O)N2C(C(=O)O)=C(CSc3ccc4nn(CC(=O)O)c(=O)n4n3)CS[C@H]12)c1ccco1` [BB-S511, 7-[(2Z)-2-Methoxyimino(fur-2-yl)acetamido]-3-(2-carboxymethyl-2,3-dihydro-s-triazolo[4,3-b]pyridazin-3-on-6-ylthiomethyl)-3-cephem-4-carboxylic Acid Disodium Salt], for which the MIC is 0.58 µg/mL in [1]; 0.15 µg/mL in assay [2]; 0.021 µg/mL in assay [3]; 1.97 µg/mL in assay [4]; 0.032 µg/mL in assay [5]; 0.037 µg/mL in assay [6]. Further, the MIC in assay [7] stood at 0.64 µg/mL; in assay [8], 0.47 µg/mL; in [9] it was 1.11 µg/mL; in assay [12] it was 5.4 µg/mL; in assay [13], 0.05 µg/mL; in assay [24] it was 1.6 µg/mL. Besides, the MIC in assay [14] is 6.3 µg/mL; in assay [15], 0.1 µg/mL; in assay [16], 0.7 µg/mL; in assay [17] it was 0.3 µg/mL; in assay [18] it was 0.6 µg/mL; in assay [19], 3.1 µg/mL. In addition, the MIC in assay [20] was above 100 µg/mL; in [21] it was 6.3 µg/mL; in [22], 25 µg/mL; in [23], 0.2 µg/mL; in assay [10] it was 1.36 µg/mL; in [11] it was 2.37 µg/mL.
